Patent US9273021B2, “Dibenzofuran derivatives as inhibitors of fructose 1,6-bisphosphatase and methods of use thereof” (TRUSTEES OF BOSTON COLLEGE, priority 2009, dated 2016)
Where “and” joins values, the source holds several entries; their conditions need not be identical. Equal entries are not always repeated. Where two headings read alike, the source gives them in different places.

Key:
human liver FBPase = human liver FBPase (Homo sapiens (Human), UniProt P09467); assay: FBPase activity, enzyme-coupled spectrophotometric assay; assay type: biochemical; conditions: for IC50: human liver FBPase; for inhibition of human liver FBPase relative to AMP: compared with AMP, the natural allosteric inhibitor
Experimental: Compounds 3 and 4 (see Scheme 1) were synthesized and tested to determine if they could inhibit either pig kidney or human liver FBPase. The test were performed using an enzyme-coupled assay^17 with AMP as a control.
(§1) FBPase activity was measured spectrophotometrically by employing the coupling enzymes phosphoglucose isomerase and glucose-6-phosphate dehydrogenase.^17 The reduction of NADP+ to NADPH was monitored directly at 340 nm. Specifically, buffer (0.2 M Tris, 4 mM MgCl2, 4 mM (NH4)2SO4, 0.1 EDTA, pH 7.5), 0.2 mM of NADP+, 1.4 units of phosphoglucose isomerase and 0.5 units of glucose-6-phosphate dehydrogenase, 0-300M of inhibitor and 9 ng of FBPase, were mixed in a cuvette and equilibrated at 30° C. 70M of FBP was then added to initiate the reaction. Absdata were collected as a function of time using a JASCO V-630 spectrophotometer.
(§2) After a lag phase, due to coupling, a straight line was fitted to the progress curve and the slope value was recorded asAbs340 per min. The amount of NADPH produced per minute was calculated using the 340 nm millimolar extinction coefficient of 6.22. At each inhibitor concentration, reactions were performed in duplicate. Inhibition curves were obtained for each compound by plotting the relative activity versus inhibitor concentration.

pig kidney FBPase = pig kidney FBPase (Sus scrofa, UniProt P00636); assay: as above; assay type: biochemical; conditions: for IC50: pig kidney FBPase; for inhibition of pig kidney FBPase relative to AMP: compared with AMP, the natural allosteric inhibitor
Experimental: The test were performed using an enzyme-coupled assay^17 with AMP as a control.
as §1, §2

plasma glucose levels = conditions: compared with Metformin (250 mg/kg); cited from earlier work
[1] = system: allosteric site of FBPase; assay: TNP-AMP fluorescence competition experiment; assay type: binding; conditions: TNP-AMP at 0.5 times its Kd
Experimental: Fluorescence data were collected using a JASCO FP-6300 spectro-fluorometer. Excitation and emission wavelengths of 410 and 535 nm respectively were used for TNPAMP (Molecular Probes). 0.15 mg of the respective FBPases, 0.08 mM MgCl and 20M fructose 1, 6-2 bisphosphate in 50 mM Tris-acetate buffer, pH 7.5, was added to a 2 mL cuvette and stirred. 3.5 M of TNP-AMP was added to the cuvette and the emission data was obtained Microliter volumes of 3 were subsequently added to the cuvette and resultant emission data was obtained after each addition. The final concentration of 3 in the enzyme solution was 6M.

[2] = Solubility (remark in competition experiment); assay type: physicochemical
[3] = read-out: FBPase, IC50 Human Liver

Sequence of human liver FBPase (P09467 2-338): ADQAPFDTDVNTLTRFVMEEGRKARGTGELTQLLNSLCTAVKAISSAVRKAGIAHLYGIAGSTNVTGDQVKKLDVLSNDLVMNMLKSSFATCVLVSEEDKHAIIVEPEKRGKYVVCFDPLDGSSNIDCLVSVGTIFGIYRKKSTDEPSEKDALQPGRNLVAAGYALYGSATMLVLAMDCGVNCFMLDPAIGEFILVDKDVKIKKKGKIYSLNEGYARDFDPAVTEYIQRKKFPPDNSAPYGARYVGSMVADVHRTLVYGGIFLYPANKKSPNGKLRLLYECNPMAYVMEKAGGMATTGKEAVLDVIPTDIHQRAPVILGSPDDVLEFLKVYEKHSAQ
Sequence of pig kidney FBPase (P00636 2-338 limits assumed): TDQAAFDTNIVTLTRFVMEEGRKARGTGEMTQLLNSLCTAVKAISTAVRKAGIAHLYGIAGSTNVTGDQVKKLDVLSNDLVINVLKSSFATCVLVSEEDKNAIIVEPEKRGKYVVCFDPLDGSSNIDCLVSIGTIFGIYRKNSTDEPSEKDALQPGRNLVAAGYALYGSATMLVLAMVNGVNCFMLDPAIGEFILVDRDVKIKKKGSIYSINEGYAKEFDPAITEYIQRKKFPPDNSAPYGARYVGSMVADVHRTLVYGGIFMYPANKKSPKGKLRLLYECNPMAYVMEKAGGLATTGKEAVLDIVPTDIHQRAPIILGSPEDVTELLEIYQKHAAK

Row | SMILES | IC50 (human liver FBPase; [3]) | IC50 (pig kidney FBPase) [nM] | inhibition of human liver FBPase relative to AMP (human liver FBPase) | inhibition of pig kidney FBPase relative to AMP (pig kidney FBPase) | solubility [2] | lowering of plasma glucose levels (plasma glucose levels) | IC50 (human liver FBPase; read-out: IC50 human liver FBPase) [µM] | TNP-AMP fluorescence on addition of increasing concentrations of compound [1]
1 | Nc1ncnc2c1ncn2[C@@H]1O[C@H](COP(=O)(O)O)[C@@H](O)[C@H]1O [AMP, reference compound] | 9.7 µM and 9.8 µM | 1300 |  |  |  |  |  | 
2 | C=C(C)C(O)Cc1c(O)c(C(=O)C(C)CC)c(O)c2c1oc1c(C(=O)C(C)CC)c(O)c(CC=C(C)C)c(O)c12 (stereo not shown) [Compound 1, achyrofuran] |  |  |  |  |  | better than that of Metformin |  | 
3 | CC(=O)C1=C(O)C=C2Oc3c(C(C)=O)c(O)c(C)c(O)c3[C@@]2(C)C1=O [Compound 2, (+)-usnic acid, reference compound] |  |  |  |  |  |  | 370 | 

More lines, main results first:

Row | IC50 (human liver FBPase; [3]) | IC50 (pig kidney FBPase) [nM] | inhibition of human liver FBPase relative to AMP (human liver FBPase) | inhibition of pig kidney FBPase relative to AMP (pig kidney FBPase) | solubility [2] | SMILES | lowering of plasma glucose levels (plasma glucose levels) | IC50 (human liver FBPase; read-out: IC50 human liver FBPase) [µM] | TNP-AMP fluorescence on addition of increasing concentrations of compound [1]
4 | 8.1 µM | 1500 ± 100 | comparable to that of AMP | comparable to that of AMP | relatively low solubility | CC(C)CC(=O)c1c(O)cc2oc3c(C(=O)CC(C)C)c(O)cc(O)c3c2c1O [Compound 3, 1,1′-(1,3,7,9-tetrahydroxydibenzofuran-2,6-diyl)bis(3-methylbutan-1-one)] |  |  | substantial diminution of the TNP-AMP fluorescence
5 | 6 µM | 5000 | comparable to that of AMP | comparable to that of AMP | relatively low solubility | CCC(C)C(=O)c1c(O)cc2oc3c(C(=O)C(C)CC)c(O)cc(O)c3c2c1O (stereo not shown) [Compound 4, 1,1′-(1,3,7,9-tetrahydroxydibenzofuran-2,6-diyl)bis(2-methylbutan-1-one)] |  |  | substantial diminution of the TNP-AMP fluorescence
